Reference: patent US20100010219A1, “METHOD FOR PRODUCING PYRROLIDINE COMPOUND” (JAPAN TOBACCO INC., priority 2006, published 2010)
Counter-ions that a name gives are not always drawn.

Biological target: T1, human HSD-1 (recombinant HSD-1) (Homo sapiens, UniProt P28845)
T1 construct: made in house
Test: HSD-1 activity inhibitory action in vitro (SPA, conversion of cortisone to cortisol)
Type: biochemical
Settings: recombinant human HSD-1 expressed using baculovirus system; 10 nM 3H cortisone, 500 μM NADPH; room temperature 90 to 120 min; read-out: hHSD1 (IC50 (nM))

T1 sequence (P28845 whole entry): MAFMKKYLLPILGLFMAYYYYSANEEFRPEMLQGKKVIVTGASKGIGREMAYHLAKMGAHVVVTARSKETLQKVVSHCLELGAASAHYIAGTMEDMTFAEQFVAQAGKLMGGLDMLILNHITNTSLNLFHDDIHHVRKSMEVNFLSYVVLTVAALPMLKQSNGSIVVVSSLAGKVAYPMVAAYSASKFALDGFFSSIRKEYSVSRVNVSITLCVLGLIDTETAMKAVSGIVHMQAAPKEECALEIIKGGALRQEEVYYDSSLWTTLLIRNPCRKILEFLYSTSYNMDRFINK

| SMILES | IC50 [nM] |
| --- | --- |
| CN(C)CCNC(=O)N1CCC(n2ncc(C(=O)N3CC[C@@H](c4ccccc4C(F)(F)F)C3)c2C2CC2)CC1 [Example 13, 1-{5-cyclopropyl-1-[1-(2-dimethylaminoethylcarbamoyl)piperidin-4-yl]-1H-pyrazole-4-carbonyl}-[(S)-3-(2-trifluoromethylphenyl)]pyrrolidine hydrochloride] | < 30 |
| CNC(=O)CN1CCC(n2ncc(C(=O)N3CC[C@@H](c4ccccc4C(F)(F)F)C3)c2C2CC2)CC1 [Example 95, 1-[5-cyclopropyl-1-(1-methylcarbamoylmethylpiperidin-4-yl)-1H-pyrazole-4-carbonyl]-[(S)-3-(2-trifluoromethylphenyl)]pyrrolidine hydrochloride] | < 30 |
| CN1CCC(NC(=O)N2CCC(n3ncc(C(=O)N4CC[C@@H](c5ccccc5C(F)(F)F)C4)c3C3CC3)CC2)CC1 [Example 42, 1-{5-cyclopropyl-1-[1-(1-methylpiperidin-4-yl-carbamoyl)piperidin-4-yl]-1H-pyrazole-4-carbonyl}-[(S)-3-(2-trifluoromethylphenyl)]pyrrolidine hydrochloride] | < 30 |
| O=C(c1cnn(C2CCN(C(=O)N3CC[C@H](O)C3)CC2)c1C1CC1)N1CC[C@@H](c2ccccc2C(F)(F)F)C1 [Example 22, 1-(5-cyclopropyl-1-{1-[(S)-3-hydroxypyrrolidine-1-carbonyl]piperidin-4-yl}-1H-pyrazole-4-carbonyl)-[(S)-3-(2-trifluoromethylphenyl)]pyrrolidine] | < 30 |
| N#Cc1ccccc1C1CCN(C(=O)c2cnn(C3CCN(C(=O)Nc4ccccc4F)CC3)c2C2CC2)C1 (centres unmarked) [Example 184, 3-(2-cyanophenyl)-1-{5-cyclopropyl-1-[1-(2-fluorophenylcarbamoyl)piperidin-4-yl]-1H-pyrazole-4-carbonyl}pyrrolidine] | < 30 |
| O=C(c1cnn(C2CCN(C(=O)N3CC(O)C3)CC2)c1C1CC1)N1CC[C@@H](c2ccccc2C(F)(F)F)C1 [Example 20, 1-{5-cyclopropyl-1-[1-(3-hydroxyazetidine-1-carbonyl)piperidin-4-yl]-1H-pyrazole-4-carbonyl}-[(S)-3-(2-trifluoromethylphenyl)]pyrrolidine] | < 30 |
| O=C(Nc1ccc(Cl)nc1Cl)N1CCC(n2ncc(C(=O)N3CCC(c4ccccc4C(F)(F)F)C3)c2C2CC2)CC1 (centres unmarked) [Example 150, 1-{5-cyclopropyl-1-[1-(2,6-dichloropyridin-3-ylcarbamoyl)piperidin-4-yl]-1H-pyrazole-4-carbonyl}-3-(2-trifluoromethylphenyl)pyrrolidine] | < 30 |
| CC(C)(N)C(=O)N1CCC(n2ncc(C(=O)N3CC[C@@H](c4ccccc4C(F)(F)F)C3)c2C2CC2)CC1 [Example 79, 1-{1-[1-(2-amino-2-methylpropionyl)piperidin-4-yl]-5-cyclopropyl-1H-pyrazole-4-carbonyl}-[(S)-3-(2-trifluoromethylphenyl)]pyrrolidine hydrochloride] | < 30 |
| O=C(Nc1ccccc1CO)N1CCC(n2ncc(C(=O)N3CC[C@@H](c4ccccc4C(F)(F)F)C3)c2C2CC2)CC1 [Example 6, 1-{5-cyclopropyl-1-[1-(2-hydroxymethylphenylcarbamoyl)piperidin-4-yl]-1H-pyrazole-4-carbonyl}-[(S)-3-(2-trifluoromethylphenyl)]pyrrolidine] | < 30 |
| CC(=O)N[C@@H](C)C(=O)N1CCC(n2ncc(C(=O)N3CC[C@@H](c4ccccc4C(F)(F)F)C3)c2C2CC2)CC1 [Example 71, 1-(1-{1-[(S)-2-acetylaminopropionyl]piperidin-4-yl}-5-cyclopropyl-1H-pyrazole-4-carbonyl)-[(S)-3-(2-trifluoromethylphenyl)]pyrrolidine] | < 30 |
| CC1(c2c(C(=O)N3CCC(c4cccnc4)C3)cnn2C2CCN(C(=O)N3CCOc4ccccc43)CC2)CC1 (centres unmarked) [Example 149] | < 30 |
